Data as given in patent publication US11013726B2 (Arbutus Biopharma Corporation, priority 2016, dated 2021).
Read-outs that look alike come from different tables or passages of the source.

Test system: HBsAg
Assay: HBsAg assay
Assay type: cell-based, hepatitis B virus
In short: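 HepG2.2.15 cells were treated with serially diluted compounds (0.5% DMSO), with medium and compound renewed after 2-3 days. Secreted HBsAg measured at day 6 by chemiluminescence immunoassay; EC50 from dose-response curves. Viability assessed in parallel by CellTiter-Glo.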

[1] = Hepatitis B virus, HepG2.2.15, 144 h, read-out: sAg EC50, μM, HepG2.2.15 cells, day 6
[2] = read-out: sAg EC50, HepG2.2.15 cells, day 6

Question: COCCCOc1cc2c(cc1Cl)-c1cc(=O)c(N(c3ncccn3)c3ncccn3)cn1C(C(C)(C)C)C2 (centres unmarked) [Example 130, 6-(Tert-butyl)-10-chloro-3-(di(pyrimidin-2-yl)amino)-9-(3-methoxypropoxy)-6,7-dihydro-2H-pyrido[2,1-a]isoquinolin-2-one] was tested. Which EC50 [1] did it give?
Answer: 0.91 µM

Question: How did the EC50 [1] turn out when CCc1cc2c(cc1OCCCO)OC[C@@H](C(C)C)n1cc(C(=O)O)c(=O)cc1-2 [Example 56, (R)-2-Ethyl-3-(3-hydroxypropoxy)-7-isopropyl-11-oxo-6,7-dihydro-111H-benzo[f]pyrido[1,2-d][1,4]oxazepine-10-carboxylic acid] was run?
Answer: 0.026 µM

Question: How did the EC50 [1] turn out when COc1ccc2c(n1)-c1cc(=O)c(C(=O)O)cn1[C@@H]2C(C)C [Example 172, (R)-5-Isopropyl-2-methoxy-9-oxo-5,9-dihydropyrido[2,3-a]indolizine-8-carboxylic acid] was run?
Answer: 0.82 µM

Question: With COCCCN(C)c1cc2c(cc1Cl)-c1cc(=O)c(C(=O)O)cn1[C@H](C(C)C)CO2 [Example 63, (R)-2-Chloro-7-isopropyl-3-((3-methoxypropyl)(methyl)amino)-11-oxo-6,7-dihydro-11H-benzo[f]pyrido[1,2-d][1,4]oxazepine-10-carboxylic acid] as the compound, how does the EC50 [1] read?
Answer: 0.03 µM

Question: For COCCN(C)c1cc2c(cc1Cl)-c1cc(=O)c(C(=O)O)cn1[C@H](C(C)C)CO2 [Example 65, (R)-2-Chloro-7-isopropyl-3-((2-methoxyethyl)(methyl)amino)-11-oxo-6,7-dihydro-11H-benzo[f]pyrido[1,2-d][1,4]oxazepine-10-carboxylic acid], which EC50 [1] is on record?
Answer: 0.27 µM

Question: Which EC50 [1] does the source give for CCC1(C(C)C)Cc2cc(OCCCOC)c(OC)nc2-c2cc(=O)c(C(=O)O)cn21 (centres unmarked) [Example 163, 6-Ethyl-6-isopropyl-2-methoxy-3-(3-methoxypropoxy)-10-oxo-5,10-dihydro-6H-pyrido[1,2-h][1,7]naphthyridine-9-carboxylic acid] here?
Answer: 0.13 µM

Question: How did the EC50 [1] turn out when CCC1COc2cc(OC)c(Cl)cc2-c2cc(=O)c(C(=O)O)cn21 (centres unmarked) [Example 8, 2-Chloro-7-ethyl-3-methoxy-11-oxo-6,7-dihydro-11H-benzo[f]pyrido[1,2-d][1,4]oxazepine-10-carboxylic acid] was run?
Answer: 0.42 µM

Question: For COc1cc2c(cc1OC)-c1cc(=O)c(C(=O)O)cn1C(C(C)C)CC2 (centres unmarked) [Example 19, 6-Isopropyl-10,11-dimethoxy-2-oxo-2,6,7,8-tetrahydrobenzo[c]pyrido[1,2-a]azepine-3-carboxylic acid], which EC50 [1] is on record?
Answer: 0.027 µM

Question: With COCCCOc1cc2c(cc1Cl)-c1cc(=O)c(NC(=O)OCC(C)(C)C)cn1C(C(C)(C)C)C2 (centres unmarked) [Example 124, Neopentyl (6-(tert-butyl)-10-chloro-9-(3-methoxypropoxy)-2-oxo-6,7-dihydro-2H-pyrido[2,1-a]isoquinolin-3-yl)carbamate] as the compound, how does the EC50 [1] read?
Answer: 16 µM

Question: CC(C)[C@@H]1COc2cc(OCCCCO)c(Cl)cc2-c2cc(=O)c(C(=O)O)cn21 [Example 39, (R)-2-Chloro-3-(4-hydroxybutoxy)-7-isopropyl-11-oxo-6,7-dihydro-11H-benzo[f]pyrido[1,2-d][1,4]oxazepine-10-carboxylic acid] was tested. Which EC50 [1] did it give?
Answer: 0.014 µM

Question: Which EC50 [1] does the source give for COCCCOc1cc2c(nc1OC)-c1cc(=O)c(C(=O)NO)cn1[C@H](C(C)C)C2 [Example 117, (S)—N-Hydroxy-6-isopropyl-2-methoxy-3-(3-methoxypropoxy)-10-oxo-5,10-dihydro-6H-pyrido[1,2-h][1,7]naphthyridine-9-carboxamide] here?
Answer: 0.054 µM

Question: For COCCCOc1cc2c(nc1OC)-c1cc(=O)c(C(=O)NNC(C)=O)cn1[C@H](C(C)C)C2 [Example 154, (6S)—N′-Acetyl-6-isopropyl-2-methoxy-3-(3-methoxypropoxy)-10-oxo-5H,6H-pyrido[1,2-h]1,7-naphthyridine-9-carbohydrazide], which EC50 [1] is on record?
Answer: 0.029 µM

Question: COCCCOc1cc2c(cc1OC)-c1cc(=NOC)c(C(=O)O)cn1C(C(C)C)C2 (centres unmarked) [Example 149] was tested. Which EC50 [1] did it give?
Answer: 7.4 µM

Question: How did the EC50 [1] turn out when CN=c1cc2n(cc1C(=O)O)C(C(C)C)Cc1cc(OCCCOC)c(OC)cc1-2 (centres unmarked) [Example 147] was run?
Answer: 0.65 µM

Question: COCCCOc1cc2c(nc1Cl)-c1cc(=O)c(C(=O)O)cn1[C@H](C(C)C)CO2 [Example 68, (R)-2-Chloro-7-isopropyl-3-(3-methoxypropoxy)-11-oxo-6,7-dihydro-11H-dipyrido[1,2-d:2′,3′-f][1,4]oxazepine-10-carboxylic acid] was tested. Which EC50 [1] did it give?
Answer: 0.017 µM

Question: How did the EC50 [1] turn out when COCCCOc1cc2c(nc1Cl)-c1cc(=O)c(C(=O)O)cn1C1C(CCC1(C)C)O2 (centres unmarked) [Example 81, 6-Chloro-7-(3-methoxypropoxy)-12,12-dimethyl-3-oxo-9a,11,12,12a-tetrahydro-3H,10H-cyclopenta[b]dipyrido[1,2-d:2′,3′-f][1,4]oxazepine-2-carboxylic acid] was run?
Answer: 0.011 µM

Question: With COCCCOc1cc2c(cc1Cl)-c1cc(=O)c(NC(=O)OC)cn1C(C(C)(C)C)C2 (centres unmarked) [Example 122, Methyl N-[6-tert-butyl-10-chloro-9-(3-methoxypropoxy)-2-oxo-6H,7H-pyrido[2,1-a]isoquinolin-3-yl]carbamate] as the compound, how does the EC50 [1] read?
Answer: 17 µM

Question: With COCCCOc1cc2c(nc1OC)-c1cc(=O)c(C(C)(C)O)cn1C(C(C)C)C2 (centres unmarked) [Example 143, 9-(2-Hydroxypropan-2-yl)-6-isopropyl-2-methoxy-3-(3-methoxypropoxy)-5,6-dihydro-10H-pyrido[1,2-h][1,7]naphthyridin-10-one] as the compound, how does the EC50 [1] read?
Answer: 0.91 µM

Question: For COCCCOc1cc2c(cc1Cl)-c1cc(=NO)c(C(=O)OC)cn1C(C(C)(C)C)C2 (centres unmarked) [Example 144, Methyl 6-tert-butyl-10-chloro-2-(hydroxyimino)-9-(3-methoxypropoxy)-6H,7H-pyrido[2,1-a]isoquinoline-3-carboxylate], which EC50 [1] is on record?
Answer: 0.17 µM

Question: How did the EC50 [1] turn out when COCCCOc1cc2c(nc1OC)-c1c(F)c(=O)c(C(=O)O)cn1[C@H](C(C)C)C2 [Example 26, (S)-11-Fluoro-6-isopropyl-2-methoxy-3-(3-methoxypropoxy)-10-oxo-5,10-dihydro-6H-pyrido[1,2-h][1,7]naphthyridine-9-carboxylic acid] was run?
Answer: 0.002 µM

Question: For CC(C)(C)C1Cc2cc3c(cc2-c2cc(=O)c(C(=O)O)cn21)OCC(O)CO3 (centres unmarked) [Example 103, 6-(Tert-butyl)-11-hydroxy-2-oxo-6,7,11,12-tetrahydro-2H,10H-[1,4]dioxepino[2,3-g]pyrido[2,1-a]isoquinoline-3-carboxylic acid], which EC50 [1] is on record?
Answer: 0.05 µM

Question: For Cc1c2n(cc(C(=O)O)c1=O)C(C(C)(C)C)Cc1cc3c(cc1-2)OCCCO3 (centres unmarked) [Example 100, 6-(Tert-butyl)-1-methyl-2-oxo-6,7,11,12-tetrahydro-2H,10H-[1,4]dioxepino[2,3-g]pyrido[2,1-a]isoquinoline-3-carboxylic acid], which EC50 [1] is on record?
Answer: 10 µM

Question: How did the EC50 [1] turn out when COCCCOc1cc2c(cc1Cl)-c1cc(=O)c(NS(=O)(=O)CC(F)(F)F)cn1C(C(C)(C)C)C2 (centres unmarked) [Example 127, N-[6-Tert-butyl-10-chloro-9-(3-methoxypropoxy)-2-oxo-6H,7H-pyrido[2,1-a]isoquinolin-3-yl]-2,2,2-trifluoroethanesulfonamide] was run?
Answer: 15 µM

Question: With CC(C)(C)C1Cc2cc3c(cc2-c2cc(=O)c(C(=O)O)cn21)OCC1(COC1)CO3 (single isomer, unassigned) [Example 94, 6′-(Tert-butyl)-2′-oxo-6′,7′-dihydro-2′H,10′H,12′H-spiro[oxetane-3,11′-[1,4]dioxepino[2,3-g]pyrido[2,1-a]isoquinoline]-3′-carboxylic acid] as the compound, how does the EC50 [2] read?
Answer: 2.2 µM

Question: For COCCCOc1cc2c(nc1OC)-c1cc(=O)c(C(=O)O)cn1C(C)(C(C)C)C2 (single isomer, unassigned) [Example 156, 6-Isopropyl-2-methoxy-3-(3-methoxypropoxy)-6-methyl-10-oxo-5,10-dihydro-6H-pyrido[1,2-h][1,7]naphthyridine-9-carboxylic acid], which EC50 [2] is on record?
Answer: 0.001 µM

Question: With COCCCOc1cc2c(nc1OC)-c1cc(=O)c(-c3nnco3)cn1[C@H](C(C)C)C2 [Example 110, (S)-6-Isopropyl-2-methoxy-3-(3-methoxypropoxy)-9-(1,3,4-oxadiazol-2-yl)-5,6-dihydro-10-pyrido[1,2-h][1,7]naphthyridin-10-one] as the compound, how does the EC50 [1] read?
Answer: 0.057 µM

Question: COCCCOc1cc2c(nc1OC)-c1cc(=O)c(C(=O)O)cn1C(C)(C(C)(C)C)C2 (centres unmarked) [Example 158, 6-(Tert-butyl)-2-methoxy-3-(3-methoxypropoxy)-6-methyl-10-oxo-5,10-dihydro-6H-pyrido[1,2-h][1,7]naphthyridine-9-carboxylic acid] was tested. Which EC50 [1] did it give?
Answer: 0.001 µM

Question: COCCCOc1cc2c(cc1Cl)-c1cc(=O)c(-c3ncccn3)cn1[C@H](C(C)C)CO2 [Example 135, (R)-2-Chloro-7-isopropyl-3-(3-methoxypropoxy)-10-(pyrimidin-2-yl)-6,7-dihydro-11H-benzo[f]pyrido[1,2-d][1,4]oxazepin-11-one] was tested. Which EC50 [1] did it give?
Answer: 2 µM

Question: How did the EC50 [1] turn out when COCCOC1COc2cc3c(cc2OC1)-c1cc(=O)c(C(=O)O)cn1C(C(C)(C)C)C3 (centres unmarked) [Example 97, 6-(Tert-butyl)-11-(2-methoxyethoxy)-2-oxo-6,7,11,12-tetrahydro-2H,10H-[1,4]dioxepino[2,3-g]pyrido[2,1-a]isoquinoline-3-carboxylic acid] was run?
Answer: 1.4 µM

Question: How did the EC50 [1] turn out when COCCCOc1cc2c(nc1Cl)-c1cc(=O)c(C(=O)O)cn1C1(COC1)CO2 [Example 71, 2-Chloro-3-(3-methoxypropoxy)-1-oxo-6H,11H-spiro[dipyrido[1,2-d:2′,3′-f][1,4]oxazepine-7,3′-oxetane]-10-carboxylic acid] was run?
Answer: 30 µM

Question: COCCCOc1cc2c(cc1C)-c1cc(=O)c(C(=O)O)cn1[C@H](C(C)C)CO2 [Example 46, (R)-7-Isopropyl-3-(3-methoxypropoxy)-2-methyl-11-oxo-6,7-dihydro-11H-benzo[f]pyrido[1,2-d][1,4]oxazepine-10-carboxylic acid] was tested. Which EC50 [1] did it give?
Answer: 0.039 µM

Question: Which EC50 [1] does the source give for CC(C)(C)C1Cc2cc3c(cc2-c2cc(=O)c(C(=O)O)cn21)OCCCO3 (centres unmarked) [Example 90, 6-(Tert-butyl)-2-oxo-6,7,11,12-tetrahydro-2H,10H-[1,4]dioxepino[2,3-g]pyrido[2,1-a]isoquinoline-3-carboxylic acid] here?
Answer: 0.095 µM
